Counter-ions that a name gives are not always drawn. Like-named read-outs stand apart in the source and are kept apart here. Marks after values point to notes of the source that are not given here.
Columns and labels:
[1] = tested on: human double-hit lymphoma SU-DHL-6 xenograft tumours; format: in vivo
Procedure: (§1) To better determine the anti-tumour activity of the PM/HP-β-CD complex, the SU-DHL-6 cell line xenografts were established in immunodeficiency mice. The NOD/SCID mice were subcutaneously inoculated 7 × 10^6 cells per mouse. […] A mimic of HyperCVAD regimen, standard chemotherapy for B cell lymphoma ([22],[23]), especially aggressive subtypes, for example, double-hit lymphoma, was set as a positive control group for comparison (Table 2). Satellite groups were set up in the 10 mg/kg group, 20 mg/kg group, and the Hyper-CVAD group. Animals in the satellite groups were not sacrificed at the end of the treatment and underwent long-term treatment for further investigation. In the survival study, the animal mortality criterion was that the tumour volume reached 3000 mm^3 or the individual animal died, and the animal survival time was statistically analysed.
When the experimental period was over, the tumour was weighed and photographed, the main organs and tumours were collected, fixed, and embedded in paraffin for Histological and immunohistochemical analysis.

SU-DHL-6 cells [2] = experiment: Annexin V-FITC/PI flow cytometry apoptosis assay; format: cell-based, human; conditions: 48 h
Procedure: The pro-apoptotic effect of the PM/HP-β-CD complex on SU-DHL-6 cells was investigated by flow cytometry. […] cells in good condition were collected and inoculated in the six-well plate with 2⋄10^5 cells per well. After being cultured for 24 h, cells were treated with PM and PM/HP-β-CD inclusion at 3 nM and 6 nM, using LBH589 at 6 nM as the positive control. The cells without drug treatment were the negative control. After 48 h incubation, the cells were then processed by annexin V-FITC/PI staining as the manufacturer’s instructions (KeyGen, 100 assays).

[3] = In vivo pharmacokinetics after oral or intravenous administration; conditions: SD rats, 10 mg/kg; for Cmax: read-out: maximum value (Cmax) of plasma concentration
Procedure: Adult SD rats (180–220 g) were used to investigate the in vivo kinetics of PM after oral or intravenous administration. The rats were fasted overnight and divided into oral and intravenous groups, containing three male and three female rats in each group. Then, 10 mg/kg of PM was administered in each rat. 0.2 mL of jugular vein blood samples were collected at a predetermined time interval of 0, 5, 15, 30, 60, 120, 240, 360, 480, and 600 min, centrifuged at 1500 rpm for 15 min at 4 °C to separate the plasma, and stored at −80 °C for the analysis by UPLC-MS. After the test, Phoenix WinNonlin software and non-compartmental analysis were used to calculate parameters such as maximum plasma concentration (Cmax), plasma clearance (CL), time to achieve maximum plasma concentration (Tmax), steady-state apparent distribution volume (Vdss), elimination half-life (t1/2), area under the concentration-time curve (AUC), and related bioavailability.

[4] = tested on: SU-DHL-6 subcutaneous tumours; experiment: Survival study in satellite groups of the SU-DHL-6 subcutaneous model; format: in vivo, NOD/SCID mice; conditions: long-term treatment, death criterion tumour volume 3000 mm^3 or death
Procedure: as §1

SU-DHL-6 cells [5] = experiment: In vitro cytotoxicity study (MTT); format: cell-based; conditions: Homo sapiens, 48 h
Procedure: To investigate the anti-tumour proliferation effect of PM/HP-β-CD, in vitro cytotoxicity test was performed. After being seeded with 96-well plates, the in vitro cultured cells were allowed to acclimate for about 1 h. The experimental group was added with 100 μL of medium containing free PM, HP-β-CD, or PM/HP-β-CD with different concentrations, and the control group was added with an equal volume of fresh medium. Each group was set up with 3 parallel holes and a cultured incubator with 5% CO2 at 37 °C. At 48 h, the survival rate of each group was calculated with the MTT method, and the IC50 value was fitted.

[6] = tested on: human double-hit lymphoma SU-DHL-6 cell line xenografts; experiment: Oral versus intravenous administration study in SU-DHL-6 xenografts; conditions: for Number End/begin / RTV / Tumor Weight (g) X ±SD / Tumor Weight Inhibition (%) / Tumor volume T/C% / animal status / deaths: 16 days; for Body weight (g) X ± SD Begin / Tumor volume (mm^3) X ±SD Begin: begin of treatment; for Body Weight (g) X ±SD End / Tumor volume (mm^3) X ±SD End: end of 16 days treatment; for animal status / deaths: 10 mg/kg
Procedure: To determine whether PM is suitable for oral or intravenous administration, the anti-tumor activity and the safety were investigated in a human double-hit lymphoma SU-DHL-6 cell line xenografts established in immunodeficiency mice. Each mouse was injected subcutaneously with 0.1 mL of cell suspension containing 1×10^6 cells. […] Tumor size and body weight were measured during the experimental period and the tumor volumes were calculated according to the formula: volume (mm^3) = length × width^2 × 0.5. When the experimental period was over, all the mice were sacrificed, and the tumor was weighed and photographed.

[7] = tested on: acetyl histone H4 (Ac-H4); experiment: Immunohistochemical detection of Ac-H4 in tumour tissue; format: in vivo, NOD/SCID mice; conditions: immunostaining after PM treatment, SU-DHL-6 subcutaneous tumour
Source text: (§2) The proliferation of tumour cells was detected by immune histochemical staining with the primary antibody of Ki-67 (Lab Vision, MA, USA). DNA double-stranded breaks were investigated by staining with the primary antibody of H2A histone family member X (γH2AX, Upstate Biotechnology, Lake Placid, NY, USA). Primary antibodies of acetyl histone H4 (Ac-H4, Upstate Biotechnology, Lake Placid, NY, USA) were used to detect the acetylation of Histone H4. FITC-labelled secondary antibodies (F-0382; Sigma) were applied with a concentration of 1:500. The images were taken with the Nikon E800 scope.

[8] = Phase solubility analysis of PM in HP-β-CD solutions; format: physicochemical; conditions: inclusion of PM by HP-β-CD
Procedure: Excess PM were added into 6 mL HP-β-CD solutions ranged from 0 to 150 mg/mL [14, 19]. The mixture solution was stirred at 1000 rpm for 24 h at 37 °C and filtered using 0.22 μm Millipore filtration. The apparent solubility of PM was calculated, and the stability constant (Ks) was calculated as the Higuchi-Connors equation, Equation (a). The Gibbs free energy (ΔG) was calculated as Equation (b), R represents the general gas constant and T represents the Kelvin temperature. (a) Ks=slope/(S0×(1–slope)) (b) ΔG=−RTlnKs

Ki-67 = experiment: Immunohistochemical detection of Ki-67 in tumour tissue; format: in vivo, NOD/SCID mice; conditions: immunostaining after PM treatment, SU-DHL-6 subcutaneous tumour
Source text: as §2

γH2AX = experiment: Immunohistochemical detection of γH2AX in tumour tissue; format: in vivo, NOD/SCID mice; conditions: immunostaining after PM treatment, SU-DHL-6 subcutaneous tumour
Source text: as §2

[9] = positive control groups, dose column – (RTX 10 mg/kg), 14 days
[10] = positive control groups, dose column – (RTX 10 mg/kg), begin of treatment
[11] = positive control groups, dose column – (RTX 10 mg/kg), end of 14 days treatment
[12] = both sexes, rat, plasma, intravenous administration
[13] = both sexes, rat, plasma, oral administration

Rituximab [RTX, reference compound]
RTV [1, 9]: 24.16 | Tumour volume T/C% [1, 9]: 92.71% | Tumour weight (g) X ± SD [1, 9]: 3.47 ± 1.07^ad g | Tumour weight Inhibition (%) [1, 9]: 29.47% | Body weight (g) X ± SD Begin [1, 10]: 22.4 ± 0.4 g | Tumour volume (mm^3) X ± SD Begin [1, 10]: 153.7 ± 33.1 mm^3 | Body Weight (g) X ±SD End [1, 11]: 25.1 ± 1.0 g | Tumour volume (mm^3) X ± SD End [1, 11]: 3505.3 ± 917.1 mm^3 | Number End/begin ([1]; positive control groups, dose column – (RTX 10 mg/kg), regimens Table 2, 14 days): 7/7

CN(Cc1nc2c(N3CCOCC3)nc(-c3ccc(N)cc3)nc2n1C)c1ncc(C(=O)NO)cn1 [PM, Purinostat mesylate]
apoptotic SU-DHL-6 cells (SU-DHL-6 cells [2]; 3 nM): 14.99% | apoptotic SU-DHL-6 cells (SU-DHL-6 cells [2]; 6 nM): 55.2% | CL ([3]; p.o.): 7280 ± 3290.7 mL/min/kg | Tmax ([3]; both sexes, rat, plasma, iv): 4.67 min | clearance ([3]; both sexes, rat, plasma, iv): 225 mL/min/kg | half-life ([3]; both sexes, rat, plasma, iv): 20.4 ± 19.7 min | Tmax ([3]; both sexes, rat, plasma, po): 5.67 min | half-life ([3]; both sexes, rat, plasma, po): 97.2 ± 41.5 min | AUC [3, 12]: 837 ± 277 ng·h/mL | Cmax [3, 12]: 3140 ± 1320 ng/mL | AUC [3, 13]: 56.2 ± 24.6 ng·h/mL | Cmax [3, 13]: 49.3 ± 26.4 ng/mL | bioavailability ([3]; both sexes, rat, plasma, oral versus intravenous, read-out: calculated bioavailability): 6.71% | Median survival (day) ([4]; PM for Injection 10 mg/kg): 30^bei day | Median survival (day) ([4]; PM for Injection 20 mg/kg): 30 ^bei day | Body weight (g) X ± SD Begin ([1]; mouse, in vivo, iv, 2.5 mg/kg): 22.0 ± 0.3 g | Number End/begin ([1]; mouse, in vivo, iv, 2.5 mg/kg): 7/7 | RTV ([1]; mouse, in vivo, iv, 2.5 mg/kg): 14.21^begkmp | Tumour volume (mm^3) X ± SD Begin ([1]; mouse, in vivo, iv, 2.5 mg/kg): 140.3 ± 23.7 mm^3 | Tumour volume (mm^3) X ± SD End ([1]; mouse, in vivo, iv, 2.5 mg/kg): 1970.1 ± 638.3 mm^3 | Tumour volume T/C% ([1]; mouse, in vivo, iv, 2.5 mg/kg): 54.53% | Tumour weight (g) X ± SD ([1]; mouse, in vivo, iv, 2.5 mg/kg): 2.10 ± 0.98^cekmp g | Tumour weight Inhibition (%) ([1]; mouse, in vivo, iv, 2.5 mg/kg): 57.35% | Body weight (g) X ± SD Begin ([1]; mouse, in vivo, iv, 5 mg/kg): 22.3 ± 0.5 g | Number End/begin ([1]; mouse, in vivo, iv, 5 mg/kg): 7/7 | RTV ([1]; mouse, in vivo, iv, 5 mg/kg): 8.26^cfiloq | Tumour volume (mm^3) X ± SD Begin ([1]; mouse, in vivo, iv, 5 mg/kg): 146.2 ± 26.5 mm^3 | Tumour volume (mm^3) X ± SD End ([1]; mouse, in vivo, iv, 5 mg/kg): 1150.0 ± 510.6 mm^3 | Tumour volume T/C% ([1]; mouse, in vivo, iv, 5 mg/kg): 31.69% | Tumour weight (g) X ± SD ([1]; mouse, in vivo, iv, 5 mg/kg): 1.39 ± 0.47^cfhlnr g | Tumour weight Inhibition (%) ([1]; mouse, in vivo, iv, 5 mg/kg): 71.80% | Body weight (g) X ± SD Begin ([1]; mouse, in vivo, iv, 10 mg/kg): 22.3 ± 0.5 g | Number End/begin ([1]; mouse, in vivo, iv, 10 mg/kg): 7/7 | RTV ([1]; mouse, in vivo, iv, 10 mg/kg): 7.39 ^cfiloq | Tumour volume (mm^3) X ± SD Begin ([1]; mouse, in vivo, iv, 10 mg/kg): 150.9 ± 32.6 mm^3 | Tumour volume (mm^3) X ± SD End ([1]; mouse, in vivo, iv, 10 mg/kg): 1084.2 ± 502.8 mm^3 | Tumour volume T/C% ([1]; mouse, in vivo, iv, 10 mg/kg): 28.37% | Tumour weight (g) X ± SD ([1]; mouse, in vivo, iv, 10 mg/kg): 0.90 ± 0.43^cfilor g | Tumour weight Inhibition (%) ([1]; mouse, in vivo, iv, 10 mg/kg): 81.67% | Body weight (g) X ± SD Begin ([1]; mouse, in vivo, iv, 20 mg/kg): 22.2 ± 0.3 g | Number End/begin ([1]; mouse, in vivo, iv, 20 mg/kg): 7/7 | RTV ([1]; mouse, in vivo, iv, 20 mg/kg): 4.31^cfilor | Tumour volume (mm^3) X ± SD Begin ([1]; mouse, in vivo, iv, 20 mg/kg): 158.9 ± 22.6 mm^3 | Tumour volume (mm^3) X ± SD End ([1]; mouse, in vivo, iv, 20 mg/kg): 664.3 ± 190.7 mm^3 | Tumour volume T/C% ([1]; mouse, in vivo, iv, 20 mg/kg): 16.53% | Tumour weight (g) X ± SD ([1]; mouse, in vivo, iv, 20 mg/kg): 0.73 ± 0.28 ^cfilor g | Tumour weight Inhibition (%) ([1]; mouse, in vivo, iv, 20 mg/kg): 85.20% | IC50 (SU-DHL-6 cells [5]): 1.88 nM | Number End/begin ([6]; i.v. 10 mg/kg (PM/HP-β-CD)): 8/8 | RTV ([6]; i.v. 10 mg/kg (PM/HP-β-CD)): 6.84^cfi | Tumor Weight (g) X ±SD ([6]; i.v. 10 mg/kg (PM/HP-β-CD)): 1.51±0.49^cfi g | Tumor Weight Inhibition (%) ([6]; i.v. 10 mg/kg (PM/HP-β-CD)): 69.96% | Tumor volume T/C% ([6]; i.v. 10 mg/kg (PM/HP-β-CD)): 30.87% | Body weight (g) X ± SD Begin ([6]; i.v. 10 mg/kg (PM/HP-β-CD)): 22.6 ± 1.7 g | Tumor volume (mm^3) X ±SD Begin ([6]; i.v. 10 mg/kg (PM/HP-β-CD)): 194.6±26.1 mm^3 | Body Weight (g) X ±SD End ([6]; i.v. 10 mg/kg (PM/HP-β-CD)): 24.9 ± 1.9 g | Tumor volume (mm^3) X ±SD End ([6]; i.v. 10 mg/kg (PM/HP-β-CD)): 1321.9±317.2 mm^3 | animal status / deaths ([6]; oral group): one of the PM oral groups died | Number End/begin ([6]; p.o. 10 mg/kg (PM suspension)): 7/8 | RTV ([6]; p.o. 10 mg/kg (PM suspension)): 16.71^a | Tumor Weight (g) X ±SD ([6]; p.o. 10 mg/kg (PM suspension)): 4.57 ± 0.99 g | Tumor Weight Inhibition (%) ([6]; p.o. 10 mg/kg (PM suspension)): 9.16% | Tumor volume T/C% ([6]; p.o. 10 mg/kg (PM suspension)): 75.46% | Body weight (g) X ± SD Begin ([6]; p.o. 10 mg/kg (PM suspension)): 21.6 ± 1.2 g | Tumor volume (mm^3) X ±SD Begin ([6]; p.o. 10 mg/kg (PM suspension)): 199.5±22.5 mm^3 | Body Weight (g) X ±SD End ([6]; p.o. 10 mg/kg (PM suspension)): 24.9 ± 3.0 g | Tumor volume (mm^3) X ±SD End ([6]; p.o. 10 mg/kg (PM suspension)): 3300.6±715.1 mm^3 | animal status / deaths ([6]; venous group): did not have animals in abnormal status | expression of Ac-H4 in tumour tissue [7]: increased | Gibbs free energy [8]: -5.055 kcal/mol | expression of Ki-67 in tumour tissue (Ki-67): decreased | expression of γH2AX in tumour tissue (γH2AX): increased

From article PMC8903780, “Therapeutic efficacy of an injectable formulation of purinostat mesylate in SU-DHL-6 tumour model” (Annals of Medicine, 2022)
